# What was measured:
# [1] = test system: BR-0001 tumors; experiment: Microarray and AR ChIP-Seq of BR-0001 tumors; assay type: in vivo, mice
# Procedure: Chromatin Immunoprecipitation Assay (ChIP). Proteins were cross-linked by incubation with 1% formaldehyde (final concentration) at 37° C. for 10 min. Tumors were homogenized using a probe hand-held homogenizer. The cells were washed with 1×PBS twice, scraped in 1 mL of PBS containing protease inhibitors ([[…] each of aprotinin, leupeptin, antipain, benzamidine HCl, and pepstatin/mL], 0.2 mM phenylmethylsulfonyl fluoride, and 1 mM sodium vanadate), pelleted, and resuspended in SDS lysis buffer (1% SDS, 10 mM EDTA, 50 mM Tris-HCl [pH 8.1]).
# After lysis on ice for 10 min, the cell extract was sonicated (Branson sonifier 250) in a cold room eight times for 10 s each at constant duty cycle, with an output of 3 and with incubation on ice after every sonication. The debris was pelleted at 13,000 rpm for 10 min at 4° C., and the supernatant was diluted 10-fold with ChIP dilution buffer (0.01% SDS, 1.1% Triton X-100, 1.2 mM EDTA, 16.7 mM Tris HCl [pH 8.1], 167 mM NaCl). The proteins were precleared with 50 μL of 1:1 protein A-Sepharose beads in TE. […]
# In the gene expression study described above, RNA was isolated from the BR-0001 TNBC tumors and the expression of genes in the entire genome was measured by microarray (Affymetrix, ST2.0 array). […]
# [2] = test system: MCF-7 cells expressing AR; experiment: MCF-7-AR cell viability (SRB); assay type: cell-based; details: 6 days
# Procedure: After 6 days of treatment, cells were harvested, and the number of cells was counted. […] Medium was changed after 3 days and re-treated. Cells were fixed after 6 days of treatment and the cell viability was measured by SRB assay. […] Medium was changed, and the cells were re-treated on days 4 and 7. Medium was collected, pooled from triplicates, and stored in −80° C. After 10 days of treatment, cells were fixed, and cell viability was measured using SRB. MCF-7 cells stably transfected with GFP (MCF-7-GFP) were plated in growth medium. Twenty-four hours after plating, cells were fed with the conditioned medium obtained from patient-derived fibroblasts as indicated above. Cells were fed for 10 days with conditioned medium, with medium changed on days 4 and 7. After 10 days of treatment, cells were fixed, and the viability was measured by SRB assay. […] AR-positive, but ER-negative HCI-9 PDX was surgically implanted as 1 mm^3 fragments under the mammary fat pad in NSG mice (n=8-10/group). […] Tumor volume was measured thrice weekly. […] ER-α from HCI-13 was cloned into pCR3.1 vector. […] Values are expressed as average±S.E. from n=3-4/data point.
# Cells were plated at varying densities in growth medium in 96 well plates. Cells were treated as indicated in the figures and viability measured using sulforhodamine B (SRB) or the number of cells counted using Coulter counter.
# [3] = Completed and ongoing clinical studies, tolerability; assay type: in vivo, human; details: single doses up to 100 mg, multiple doses up to 30 mg once daily up to 14 days
# From the text: These include: 1. Protocol G100401, a Phase 1 single ascending dose study in 96 healthy, young, male volunteers; 2. Protocol G100402, a Phase 1 multiple ascending dose study in 50 healthy, young, male volunteers, and 23 elderly male volunteers with truncal obesity; 3. Protocol G100503, a Phase 1 single dose pharmacokinetic study to assess the effect of a dosage regimen that simulates a sustained release formulation to an immediate release formulation in 18 healthy, young male volunteers and 18 postmenopausal women; 4. Protocol G100506, a Phase 1 single dose pharmacokinetic study to assess the relative bioavailability of a 3 mg hard shell capsule formulation to be used during continued clinical development and to assess the effect of food on the pharmacokinetics of the 3 mg softgel formulation in 27 healthy, young, male volunteers; 5. Protocol 006, a Phase 1 single dose and multiple dose pharmacokinetic study in 24 postmenopausal, Japanese women; 6. Protocol G200501, a Phase 2 study in 60 postmenopausal women and 60 elderly men to assess lean body mass and physical function; 7. Protocol 003, a Phase 1b study in 44 postmenopausal women; 8. Protocol G200502, a Phase 2b study in 159 men and postmenopausal women with cancer to assess lean body mass and physical function; 9.
structure (smiles),measurement,setting,value
"C[C@](O)(COc1ccc(C#N)cc1)C(=O)Nc1ccc(C#N)c(C(F)(F)F)c1 [Formula IX, (S)—N-(4-Cyano-3-(trifluoromethyl)phenyl)-3-(4-cyanophenoxy)-2-hydroxy-2-methylpropanamide]",AR-occupied promoters with the gene up-regulated,"[1]; mouse, in vivo",20%
same,promoters to which AR was recruited,[1]; −5 kb to +1 kb,176 promoters
same,proliferation / cell viability,[2],inhibited proliferation
same,tolerability,[3],generally well-tolerated

# From patent US20220257552A1, “METHODS OF PRESCREENING AND TREATING BREAST CANCERS WITH SELECTIVE ANDROGEN RECEPTOR MODULATORS” (priority 2021, published 2022)
